“Also recorded” adds a separate entry of the source.
What was measured:
rTR alpha = biological target: T1, rTR alpha (Rattus norvegicus, UniProt P63059); test: ^125I-T3 binding to in vitro translated rTR alpha (Scatchard and competition); settings: excess competitor
T1 construct: made in house; host or cells: rabbit reticulocyte lysate (SP6 transcripts of rbeA12B)
T1 sequence (P63059 1-410 isoform P63059-2): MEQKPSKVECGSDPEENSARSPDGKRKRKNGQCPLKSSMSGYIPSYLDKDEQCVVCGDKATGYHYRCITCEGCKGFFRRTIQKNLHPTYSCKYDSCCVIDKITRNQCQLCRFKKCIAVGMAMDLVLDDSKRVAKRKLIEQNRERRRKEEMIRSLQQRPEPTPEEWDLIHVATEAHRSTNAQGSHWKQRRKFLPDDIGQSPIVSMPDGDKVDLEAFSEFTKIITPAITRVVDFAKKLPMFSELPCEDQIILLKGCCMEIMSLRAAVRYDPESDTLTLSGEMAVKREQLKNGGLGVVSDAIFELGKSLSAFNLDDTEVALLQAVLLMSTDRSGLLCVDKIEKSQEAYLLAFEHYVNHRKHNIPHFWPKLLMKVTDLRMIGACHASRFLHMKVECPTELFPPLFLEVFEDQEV
Text: In vitro translation and thyroid hormone binding of rTR alpha FIG. 69 rTR alpha was transcribed in vitro and translated in a rabbit reticulocyte lysate. […] Lane 1, no added RNA; lane 2, rbeA12, which contains the entire 5′ untranslated region; lane 3, rbeA12B, which contains only 97 bp of 5′ untranslated sequence. […] Samples from rbeA12B programmed lysates were mixed with increasing concentrations of unlabeled thyroid hormone or analogs to compete with labeled hormone. […] In vitro transcription and translation and hormone binding were performed as described (22, 23).
23. For in vitro transcription, the entire EcoRI insert of rbeA12 was cloned into pGEM1 (Promega Biotec). […] For thyroid hormone binding, transcriptions were performed with SP6 polymerase and 5 to 10 micrograms of rbeA12B linearized with SstI. […] Thyroid hormone binding for both the Scatchard and competition analyses were determined in the same manner, except that unlabeled protein was used for the Scatchard analysis. […] Specific hormone binding was determined by adding a 1000-fold excess of unlabeled hormone and assayed by counting radioactivity eluting in the excluded volume from a Sephadex G-25 fine (Pharmacia) 0.9-by 4.0-cm. column.

MR = settings: read-out: reported KD values for aldosterone binding to MR; cited from earlier work
GR [1] = biological target: T2, GR (Homo sapiens, UniProt P04150); settings: read-out: KD for binding to GR; cited from earlier work
T2 sequence (P04150 1-777): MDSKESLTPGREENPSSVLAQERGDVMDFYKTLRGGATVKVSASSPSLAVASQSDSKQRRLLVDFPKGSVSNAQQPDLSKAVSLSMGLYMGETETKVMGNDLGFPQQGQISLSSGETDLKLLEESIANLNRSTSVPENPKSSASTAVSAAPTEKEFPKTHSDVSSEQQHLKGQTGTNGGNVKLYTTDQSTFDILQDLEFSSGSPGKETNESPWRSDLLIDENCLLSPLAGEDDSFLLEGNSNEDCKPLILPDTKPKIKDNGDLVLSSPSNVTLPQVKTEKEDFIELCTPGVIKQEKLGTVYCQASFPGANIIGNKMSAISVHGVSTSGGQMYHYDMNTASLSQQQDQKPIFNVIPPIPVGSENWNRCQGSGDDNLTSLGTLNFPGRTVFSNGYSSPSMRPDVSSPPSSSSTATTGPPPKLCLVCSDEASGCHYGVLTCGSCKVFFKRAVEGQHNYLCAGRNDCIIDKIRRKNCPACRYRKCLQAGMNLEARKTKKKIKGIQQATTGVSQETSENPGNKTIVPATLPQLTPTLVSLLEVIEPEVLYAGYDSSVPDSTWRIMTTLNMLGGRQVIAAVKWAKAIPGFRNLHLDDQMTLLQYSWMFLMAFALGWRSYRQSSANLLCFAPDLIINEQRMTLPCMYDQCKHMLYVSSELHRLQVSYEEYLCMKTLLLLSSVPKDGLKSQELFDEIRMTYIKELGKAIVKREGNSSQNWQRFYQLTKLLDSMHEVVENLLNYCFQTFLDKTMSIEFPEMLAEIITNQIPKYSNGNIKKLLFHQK

hMR [2] = biological target: T3, hMR (Homo sapiens, UniProt P08235); test: Transcriptional activation of MMTV LTR (GMCAT) by hMR in transfected CV1 cells; assay type: cell-based; design: expressed in transfected cells; settings: pRShMR + GMCAT, charcoal-treated serum, 10 nM steroid
T3 sequence (P08235 1-984): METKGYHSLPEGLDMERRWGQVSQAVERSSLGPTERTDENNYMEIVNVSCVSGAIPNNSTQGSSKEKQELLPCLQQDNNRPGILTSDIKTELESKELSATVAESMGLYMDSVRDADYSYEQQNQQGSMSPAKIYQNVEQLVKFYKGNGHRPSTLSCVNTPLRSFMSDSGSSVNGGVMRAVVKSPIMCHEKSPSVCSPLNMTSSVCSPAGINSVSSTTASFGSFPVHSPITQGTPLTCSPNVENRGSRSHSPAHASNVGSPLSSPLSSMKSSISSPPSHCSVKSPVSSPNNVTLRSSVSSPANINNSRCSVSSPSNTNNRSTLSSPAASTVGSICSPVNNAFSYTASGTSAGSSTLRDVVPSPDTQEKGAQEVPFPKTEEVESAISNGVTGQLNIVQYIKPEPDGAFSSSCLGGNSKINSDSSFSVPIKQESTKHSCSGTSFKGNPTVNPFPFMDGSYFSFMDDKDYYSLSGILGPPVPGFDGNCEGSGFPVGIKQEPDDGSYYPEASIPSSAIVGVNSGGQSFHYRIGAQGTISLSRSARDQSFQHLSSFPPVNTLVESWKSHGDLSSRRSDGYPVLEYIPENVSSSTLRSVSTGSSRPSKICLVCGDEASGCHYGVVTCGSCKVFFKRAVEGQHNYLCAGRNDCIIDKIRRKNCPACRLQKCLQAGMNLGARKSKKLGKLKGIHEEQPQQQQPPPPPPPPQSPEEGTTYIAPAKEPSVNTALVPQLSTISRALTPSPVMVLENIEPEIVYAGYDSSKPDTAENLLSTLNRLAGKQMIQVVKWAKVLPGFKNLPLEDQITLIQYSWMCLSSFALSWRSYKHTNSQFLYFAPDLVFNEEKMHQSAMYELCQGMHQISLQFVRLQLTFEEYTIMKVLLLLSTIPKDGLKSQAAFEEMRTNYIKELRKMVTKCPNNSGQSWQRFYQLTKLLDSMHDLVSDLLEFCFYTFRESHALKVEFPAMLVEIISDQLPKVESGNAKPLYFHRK
Text: Steroid hormone action is characterized by hormone-dependent modulation of target gene transcription. The assay for transcriptional regulation by transfected hGR in CVI cells (see Experimental Section II) was adapted to hMR (FIGS. 42 and 44). The expression plasmid used for steroid-binding assays, pRShMR, was cotransfected with a reporter plasmid called GMCAT, which contains the MMTV LTR linked to the bacterial gene for chloramphenicol acetyltransferase (CAT). Thus CAT activity provides an enzymatic assay for the transcriptional activity of the MMTV promoter. The MMTV promoter contains several glucorticoid response elements (GRE's), enhancer-like DNA sequences that confer glucocorticoid responsiveness via interaction with the GR (21).
FIG. 42 Structure of GMCAT. This plasmid was cotransfected with the steroid receptors as a reporter gene for hormone-dependent transcriptional activation (see Experimental Section II). […] Transfected cells were maintained in DMEM with 5 percent fetal calf serum. Serum was treated with charcoal to eliminate free steroids in subsequent experiments so that the effects of exogenous steroids could be determined. […] (D) AC, 3-acetylchloramphenicol; C, chloramphenicol. Two days after transfection by calcium phosphate coprecipitation (43), extracts were prepared for CAT assay (44). The assays were incubated for 6 hours with 50 micrograms of protein extract.

GR [3] = biological target: T2, GR; test: Transcriptional activation of MMTV LTR (GMCAT) by hGR in transfected CV1 cells; assay type: cell-based; design: The expression vector linking the RSV LTR to full length hGR cDNA (pRShGR alpha) was designed to obtain high levels of expression; expressed in transfected cells; host or cells: CV1 monkey kidney cells, cotransfected with GMCAT; settings: pRShGR alpha + GMCAT, 10 nM steroid
[4] = biological target: T4, alpha-hGR (human glucocorticoid receptor) translated in vitro (Homo sapiens, UniProt P04150); test: Steroid binding (^3H-triamcinolone acetonide) of hGR translated in vitro in reticulocyte lysate, competition by unlabeled steroids; settings: 100-fold excess unlabeled competitor (15 microM), 2 h at 0° C.
T4 construct: We describe the use of the SP6 transcription vector system to generate analytical amounts of full-length protein; made in house; host or cells: rabbit reticulocyte lysate (cell-free translation of SP6 transcripts)
T4 sequence (P04150 1-777): T2 sequence (P04150 1-777)
Procedure: Steroid-binding of alpha-hGR translated in vitro. […] Bars represent bound ^3H-triamcinolone acetonide (TA) determined with a 100-fold excess of various steroid competitors; 100% competition was determined using unlabeled TA as competitor. The values represent the mean of triplicate determinations, with error bars showing […].
Binding assays were performed in 100 microliters containing 10 mM Tris-HCl pH 7.4, 100 mM NaCl, 1 mM EDTA, 10 mM sodium molybdate, 10 dithiothreitol, […] ^3H-TA (20 Ci mmol^−1, Amersham) and 10 microliters translation mixture or 100 microgram fresh 1M-9 cytosol. Unlabeled steroid competitor (15 microM) was added as indicated. After 2 h at 0° C., samples were extracted twice for 5 min. each with 5 microliter of 50% dextran-coated charcoal to remove unbound steroid, and counted.

hMR [5] = biological target: T3, hMR; test: [^3H]aldosterone binding and steroid competition in extracts of pRShMR-transfected COS cells; design: expressed in transfected cells; host or cells: COS cells transfected with pRShMR (DEAE-dextran); settings: 1-, 10-, or 100-fold molar excess of unlabeled steroid
Procedure: Ligand specificity of the hMR protein was determined by preparing cytosol extracts from COS cells transfected with pRShMR. Two days after transfection, cells were harvested, and hormone binding was measured by a dextran-treated charcoal assay. […] This provided a measure of the relative affinity of each of these steroids for hMR.
Steroid-binding properties of expressed hMR. FIG. 38 Structure of pRShMR, the hMR expression plasmid (41). […] Each point was assayed in triplicate with 100 micrograms of extract protein in a 200-microliter incubation at 0° C. for 2.5 hours. […] The results of two independent trials representative of these competition experiments are shown. Cold competitor was present in 1-, 10-, or 100-fold molar excess. […] Subconfluent COS cells were transfected by the DEAE-dextran method (42) with 10 micrograms of pRShMR per dish. Cells were maintained for 2 days in DMEM (Dulbecco's modification of Eagle's minimum essential medium) with 5 percent charcoal-treated fetal calf serum, then harvested in […] tris-HCl. (pH 7.8), 10 nM NaCl, 1 mM EDTA, 10 mM Na2MoO4, 5 mM dithiothreitol, antipain (5 microgram/ml), leupeptin (5 microgram/ml), and 500 microM phenylmethylsulfonyl fluoride. After centrifugation at 15,000×g for 10 minutes, extracts were adjusted to 100 mM NaCl and 5 percent glycerol before binding. […] After centrifugation at 15,000×g for 2 minutes at 40C, tritium in supernatant was quantified by liquid scintillation spectrophotometry.

In the case of C[C@]12CCC(=O)C=C1CC[C@@H]1[C@@H]2[C@@H](O)C[C@]2(C=O)[C@@H](C(=O)CO)CC[C@@H]12 [aldosterone], the “competition for T3 binding to rTR alpha by excess compound” value (rTR alpha) is given as “no competition”, the Kd (MR) is given as 0.5 to 3 nM and the Kd (GR [1]) is given as 25 to 65 nM. The “hMR-mediated CAT activity response (in words)” value (hMR [2]) was “became responsive; also recorded: approximately equivalent” and the “hGR-mediated CAT activity response (in words)” value (GR [3]) was “did not respond; also recorded: insensitive”.

With C[C@]12CCC(=O)C=C1CC[C@@H]1[C@@H]2[C@@H](O)C[C@@]2(C)[C@H]1CC[C@]2(O)C(=O)CO [cortisol] the “competition with ^3H-TA binding to in vitro-synthesized alpha-hGR by excess unlabeled steroid” value [4] was “could be competed with”, the “hMR-mediated CAT activity response (in words)” value (hMR [2]) was “also observed” and the “relative affinity for hMR by competition with 5 nM [^3H]aldosterone (in words)” value (hMR [5]) was “compete as effectively as aldosterone itself”. For the same molecule, the “relative affinity for hMR by competition with 5 nM [^3H]aldosterone (in words)” value (hMR [5]; listed as hydrocortisone) was “very similar affinities”.
